# Like-named read-outs stand apart in the source and are kept apart here.
# How the values were obtained:
# Assay type in all cases: cell-based
# [1] = system: Monographella nivalis (syn. Microdochium nivale, Fusarium nivale); assay: Monographella nivalis (snow mould, foot rot of cereals), PDB microtiter plate, visual after 72 hrs; conditions: applied alone; for inhibition at 0.015625 ppm: rate 0.015625 ppm
# [2] = system: Mycosphaerella arachidis (y. Cercospora arachidicola); assay: Mycosphaerella arachidis (brown leaf spot of groundnut), PDB microtiter plate, visual after 5-6 days; conditions: single compound
# [3] = system: Septoria tritici; assay: Septoria tritici (leaf blotch), PDB microtiter plate, visual after 72 hrs; conditions: single compound
# [4] = system: Botrytis cinerea; assay: Botrytis cinerea (gray mould), PDB microtiter plate, visual after 72 hrs
# [5] = Monographella nivalis, 0.0625 ppm
# [6] = Monographella nivalis, 0.125 ppm
# [7] = Monographella nivalis, 0.25 ppm
# [8] = Monographella nivalis, rate 0.03125 ppm
# [9] = Monographella nivalis, rate 0.0625 ppm
# [10] = Monographella nivalis, rate 0.125 ppm
# [11] = Monographella nivalis, rate 0.25 ppm
# [12] = Monographella nivalis, rate 0.5 ppm
# [13] = Monographella nivalis, rate 1 ppm
# [14] = Zymoseptoria tritici, 0.125 ppm
# [15] = Botrytis cinerea, alone, rate 0.125 ppm
# [16] = Botrytis cinerea, alone, rate 0.25 ppm
# [17] = Botrytis cinerea, alone, rate 0.5 ppm
# [18] = Botrytis cinerea, alone, rate 1.25 ppm
# [19] = Botrytis cinerea, alone, rate 2.5 ppm, read-out: Activity (%)
# [20] = Monographella nivalis, 0.625 ppm
# [21] = Monographella nivalis, 1.25 ppm
# [22] = Monographella nivalis, rate 0.3125 ppm
# [23] = Monographella nivalis, rate 0.625 ppm
# [24] = Monographella nivalis, rate 1.25 ppm
# [25] = Monographella nivalis, rate 2.5 ppm
# [26] = Botrytis cinerea, alone, rate 0.625 ppm
smiles,measurement,setting,value
Cn1cc(C(=O)Nc2ccc(F)cc2-c2ccc(Cl)c(Cl)c2)c(C(F)F)n1 [Bixafen],Activity (%),[1]; 0.25 ppm,20%
same,Activity (%),[2]; 0.03125 ppm,50%
same,Activity (%),[2]; 0.0625 ppm,70%
CC1(C)CCC(Cc2ccc(Cl)cc2)C1(O)Cn1cncn1 (stereo not drawn) [Metconazole],inhibition at 0.03125 ppm,"[3]; Zymoseptoria tritici, 0.03125 ppm",0%
same,inhibition at 0.0625 ppm,"[3]; Zymoseptoria tritici, 0.0625 ppm",70%
same,Activity (%),[3]; 0.0625 ppm,50%
same,inhibition at 0.015625 ppm,"[4]; Botrytis cinerea, alone, rate 0.015625 ppm",0%
same,inhibition at 0.03125 ppm,"[4]; Botrytis cinerea, alone, rate 0.03125 ppm, read-out: Activity (%)",0%
same,inhibition at 0.0625 ppm,[1]; [5],0%
same,inhibition at 0.125 ppm,[1]; [6],0%
same,inhibition at 0.25 ppm,[1]; [7],0%
same,inhibition at 0.5 ppm,"[1]; Monographella nivalis, 0.5 ppm",0%
same,inhibition at 1 ppm,"[1]; Monographella nivalis, 1 ppm",20%
same,inhibition at 0.015625 ppm,[1]; Monographella nivalis,0%
same,inhibition at 0.03125 ppm,[1]; [8],0%
same,inhibition at 0.0625 ppm,[1]; [9],0%
same,inhibition at 0.125 ppm,[1]; [10],0%
same,inhibition at 0.25 ppm,[1]; [11],0%
same,inhibition at 0.5 ppm,[1]; [12],0%
same,inhibition at 1 ppm,[1]; [13],20%
Cn1cc(C(=O)Nc2ccccc2-c2cc(F)c(F)c(F)c2)c(C(F)F)n1 [Fluxapyroxad],Activity (%),[3]; 0.015625 ppm,0%
same,Activity (%),[3]; 0.03125 ppm,0%
same,Activity (%),[3]; 0.0625 ppm,20%
same,Activity (%),"[4]; alone, rate 0.015625 ppm",20%
same,Activity (%),"[4]; alone, rate 0.0625 ppm",50%
same,Activity (%),"[4]; alone, rate 0.125 ppm",70%
C#CCOc1ccc(CCNC(=O)C(OCC#C)c2ccc(Cl)cc2)cc1OC (stereo not drawn) [Mandipropamid],Activity (%),[3]; 0.5 ppm,70%
same,Activity (%),"[4]; alone, rate 5 ppm",0%
same,Activity (%),"[4]; alone, rate 10 ppm",0%
same,Activity (%),"[4]; alone, rate 20 ppm",0%
same,Activity (%),[1]; rate 0.03125 ppm,0%
same,Activity (%),[1]; rate 0.0625 ppm,0%
O=C(NCCc1ncc(C(F)(F)F)cc1Cl)c1ccccc1C(F)(F)F [Fluopyram],inhibition at 0.125 ppm,[3]; [14],0%
same,inhibition at 0.25 ppm,"[3]; Zymoseptoria tritici, 0.25 ppm, read-out: Activity (%)",50%
OC(Cn1cncn1)(c1ccc(F)cc1)c1ccccc1F (stereo not drawn) [Flutriafol],inhibition at 0.5 ppm,"[3]; Zymoseptoria tritici, 0.5 ppm",0%
same,inhibition at 1 ppm,"[3]; Zymoseptoria tritici, 1 ppm",0%
same,inhibition at 0.125 ppm,[4]; [15],0%
same,inhibition at 0.25 ppm,[4]; [16],0%
same,inhibition at 0.5 ppm,[4]; [17],0%
same,inhibition at 1 ppm,"[4]; Botrytis cinerea, alone, rate 1 ppm",0%
same,inhibition at 2 ppm,"[4]; Botrytis cinerea, alone, rate 2 ppm",0%
same,inhibition at 0.0625 ppm,[1]; [5],0%
same,inhibition at 0.125 ppm,[1]; [6],0%
same,inhibition at 0.25 ppm,[1]; [7],0%
same,inhibition at 0.5 ppm,"[1]; Monographella nivalis, 0.5 ppm",0%
same,inhibition at 0.03125 ppm,[1]; [8],0%
same,inhibition at 0.0625 ppm,[1]; [9],0%
same,inhibition at 0.125 ppm,[1]; [10],0%
same,inhibition at 0.25 ppm,[1]; [11],0%
same,inhibition at 0.5 ppm,[1]; [12],0%
same,inhibition at 1 ppm,[1]; [13],0%
same,inhibition at 2 ppm,"[1]; Monographella nivalis, rate 2 ppm",0%
Cn1cc(C(=O)Nc2ccccc2C2CC2C2CC2)c(C(F)F)n1 (stereo not drawn) [Sedaxan],Activity (%),[2]; 0.00390625 ppm,0%
same,Activity (%),[2]; 0.015625 ppm,0%
same,Activity (%),[2]; 0.03125 ppm,0%
same,Activity (%),[2]; 0.0625 ppm,0%
same,Activity (%),[2]; 0.125 ppm,0%
CCOC(=O)C1CC(=O)C(=C(O)C2CC2)C(=O)C1 (stereo not drawn) [Trinexapacethyl],inhibition at 1.25 ppm,[4]; [18],0%
same,inhibition at 2.5 ppm,[4]; [19],0%
same,inhibition at 5 ppm,"[4]; Botrytis cinerea, alone, rate 5 ppm, read-out: Activity (%)",0%
same,inhibition at 10 ppm,"[4]; Botrytis cinerea, alone, rate 10 ppm, read-out: Activity (%)",0%
same,inhibition at 20 ppm,"[4]; Botrytis cinerea, alone, rate 20 ppm, read-out: Activity (%)",0%
same,inhibition at 0.625 ppm,[1]; [20],0%
same,inhibition at 1.25 ppm,[1]; [21],0%
same,inhibition at 2.5 ppm,"[1]; Monographella nivalis, 2.5 ppm",0%
same,inhibition at 5 ppm,"[1]; Monographella nivalis, 5 ppm",0%
same,inhibition at 0.12625 ppm,"[1]; Monographella nivalis, rate 0.12625 ppm",0%
same,inhibition at 0.3125 ppm,[1]; [22],0%
same,inhibition at 0.625 ppm,[1]; [23],0%
same,inhibition at 1.25 ppm,[1]; [24],0%
same,inhibition at 2.5 ppm,[1]; [25],0%
CC(C)(C)[C@@H](O)[C@@H](Cc1ccc(Cl)cc1)n1cncn1 (racemic) [Paclobutrazol],inhibition at 0.15625 ppm,"[3]; Zymoseptoria tritici, 0.15625 ppm",0%
same,inhibition at 0.3125 ppm,"[3]; Zymoseptoria tritici, 0.3125 ppm",20%
same,inhibition at 0.625 ppm,"[3]; Zymoseptoria tritici, 0.625 ppm",0%
same,inhibition at 1.25 ppm,"[3]; Zymoseptoria tritici, 1.25 ppm",0%
same,inhibition at 5 ppm,"[3]; Zymoseptoria tritici, 5 ppm",70%
same,inhibition at 10 ppm,"[3]; Zymoseptoria tritici, 10 ppm",70%
same,Activity (%),[3]; 5 ppm,50%
same,inhibition at 0.625 ppm,[4]; [26],0%
same,inhibition at 1.25 ppm,[4]; [18],0%
same,inhibition at 2.5 ppm,[4]; [19],0%
same,inhibition at 1.25 ppm,"[4]; Botrytis cinerea, single compound, rate 1.25 ppm",0%
same,inhibition at 2.5 ppm,"[4]; Botrytis cinerea, single compound, rate 2.5 ppm, read-out: Activity (%)",0%
same,inhibition at 5 ppm,"[4]; Botrytis cinerea, single compound, rate 5 ppm, read-out: Activity (%)",70%
same,inhibition at 0.625 ppm,[1]; [20],0%
same,inhibition at 1.25 ppm,[1]; [21],0%
same,inhibition at 2.5 ppm,"[1]; Monographella nivalis, 2.5 ppm",0%
same,inhibition at 5 ppm,"[1]; Monographella nivalis, 5 ppm",0%
same,inhibition at 10 ppm,"[1]; Monographella nivalis, 10 ppm",0%
same,inhibition at 0.15625 ppm,"[1]; Monographella nivalis, rate 0.15625 ppm",0%
same,inhibition at 0.3125 ppm,[1]; [22],0%
same,inhibition at 0.625 ppm,[1]; [23],0%
same,inhibition at 1.25 ppm,[1]; [24],0%
CC/C=C\CC1=C(C)CCC1=O [cis-Jasmone],Activity (%),"[4]; alone, rate 0.625 ppm",0%
same,Activity (%),"[4]; alone, rate 1.25 ppm",0%
same,Activity (%),"[4]; alone, rate 2.5 ppm",0%
same,Activity (%),"[4]; alone, rate 5 ppm",0%
same,Activity (%),[1]; 0.625 ppm,0%
same,Activity (%),[1]; 1.25 ppm,0%
same,Activity (%),[1]; 2.5 ppm,0%
same,Activity (%),[1]; 5 ppm,0%
same,Activity (%),[1]; rate 0.15625 ppm,0%
same,Activity (%),[1]; rate 0.3125 ppm,0%
same,Activity (%),[1]; rate 0.625 ppm,0%
same,Activity (%),[1]; rate 1.25 ppm,0%
CO/C=C(/C(=O)OC)c1ccccc1Oc1cc(Oc2ccccc2C#N)ncn1 [Azoxystrobin],Activity (%),"[4]; alone, rate 0.025 ppm",0%
same,Activity (%),"[4]; alone, rate 0.05 ppm",0%
same,Activity (%),"[4]; alone, rate 0.1 ppm",0%
same,Activity (%),"[4]; alone, rate 0.125 ppm",0%
same,Activity (%),"[4]; alone, rate 0.2 ppm",20%
same,Activity (%),"[4]; alone, rate 0.25 ppm",20%
same,Activity (%),[1]; 0.00625 ppm,50%
same,Activity (%),[1]; rate 0.0015625 ppm,0%
same,Activity (%),[1]; rate 0.003125 ppm,20%
same,Activity (%),[1]; rate 0.00625 ppm,70%
CO/C=C(/C(=O)OC)c1ccccc1COc1cccc(C(F)(F)F)n1 [Picoxystrobin],Activity (%),[3]; 0.015625 ppm,70%
same,Activity (%),[3]; 0.03125 ppm,90%
same,Activity (%),"[4]; alone, rate 0.25 ppm",50%
same,Activity (%),"[4]; alone, rate 0.5 ppm",50%
same,Activity (%),"[4]; alone, rate 1 ppm",50%
same,Activity (%),"[4]; alone, rate 2 ppm",50%
Cc1cc(C2CC2)nc(Nc2ccccc2)n1 [Cyprodinil],inhibition at 0.0015625 ppm,"[1]; Monographella nivalis, 0.0015625 ppm",0%
same,inhibition at 0.003125 ppm,"[1]; Monographella nivalis, 0.003125 ppm",20%
same,inhibition at 0.00078125 ppm,"[2]; Mycosphaerella arachidis, 0.00078125 ppm",0%
same,inhibition at 0.00125 ppm,"[2]; Mycosphaerella arachidis, 0.00125 ppm",0%
same,inhibition at 0.0015625 ppm,"[2]; Mycosphaerella arachidis, 0.0015625 ppm",0%
same,inhibition at 0.003125 ppm,"[2]; Mycosphaerella arachidis, 0.003125 ppm",0%
same,inhibition at 0.025 ppm,"[2]; Mycosphaerella arachidis, 0.025 ppm",0%
same,inhibition at 0.05 ppm,"[2]; Mycosphaerella arachidis, 0.05 ppm",0%
same,inhibition at 0.0625 ppm,"[2]; Mycosphaerella arachidis, 0.0625 ppm, read-out: Activity (%)",0%
same,inhibition at 0.1 ppm,"[2]; Mycosphaerella arachidis, 0.1 ppm",0%
same,inhibition at 0.2 ppm,"[2]; Mycosphaerella arachidis, 0.2 ppm",0%
[Cu+2].[OH-].[OH-] [Copper hydroxide],Activity (%),"[4]; alone, rate 1.25 ppm",0%
same,Activity (%),"[4]; alone, rate 2.5 ppm",0%
same,Activity (%),"[4]; alone, rate 5 ppm",0%
same,Activity (%),[1]; rate 0.15625 ppm,0%
same,Activity (%),[1]; rate 0.3125 ppm,0%
same,Activity (%),[1]; rate 0.625 ppm,0%
same,Activity (%),[1]; rate 1.25 ppm,0%
same,Activity (%),[1]; rate 2.5 ppm,0%
same,Activity (%),[1]; rate 5 ppm,0%
Cc1nn(C)c(F)c1C(=O)Nc1ccccc1C(C)CC(C)C (stereo not drawn) [Penflufen],Activity (%),[3]; 0.125 ppm,0%
same,Activity (%),[3]; 0.25 ppm,20%
same,Activity (%),[3]; 0.5 ppm,70%
same,Activity (%),[1]; 0.5 ppm,0%
same,Activity (%),[1]; 1 ppm,20%
same,Activity (%),[1]; rate 0.5 ppm,0%
same,Activity (%),[1]; rate 1 ppm,20%
CCCC1COC(Cn2cncn2)(c2ccc(Cl)cc2Cl)O1 (stereo not drawn) [Propiconazole],inhibition at 0.125 ppm,[3]; [14],50%
same,inhibition at 0.0625 ppm,"[4]; Botrytis cinerea, alone, rate 0.0625 ppm, read-out: Activity (%)",0%
same,inhibition at 0.125 ppm,[4]; [15],0%
same,inhibition at 0.25 ppm,[4]; [16],0%
same,inhibition at 0.5 ppm,[4]; [17],50%
same,inhibition at 0.25 ppm,"[4]; Botrytis cinerea, single compound, rate 0.25 ppm",0%
same,inhibition at 0.5 ppm,"[4]; Botrytis cinerea, single compound, rate 0.5 ppm",50%
same,inhibition at 0.0625 ppm,[1]; [5],0%
same,inhibition at 0.125 ppm,[1]; [6],0%
same,inhibition at 0.25 ppm,[1]; [7],0%
same,inhibition at 0.5 ppm,"[1]; Monographella nivalis, 0.5 ppm",0%
same,inhibition at 1 ppm,"[1]; Monographella nivalis, 1 ppm",20%
same,inhibition at 0.015625 ppm,[1]; Monographella nivalis,0%
same,inhibition at 0.03125 ppm,[1]; [8],0%
same,inhibition at 0.0625 ppm,[1]; [9],0%
same,inhibition at 0.125 ppm,[1]; [10],0%
same,inhibition at 0.25 ppm,[1]; [11],0%
CN1COCN(Cc2cnc(Cl)s2)/C1=N\[N+](=O)[O-] [Thiamethoxam],inhibition at 0.625 ppm,[4]; [26],0%
same,inhibition at 1.25 ppm,[4]; [18],0%
same,inhibition at 2.5 ppm,[4]; [19],0%
same,inhibition at 0.3125 ppm,[1]; [22],0%
same,inhibition at 0.625 ppm,[1]; [23],0%
same,inhibition at 2.5 ppm,[1]; [25],0%
same,inhibition at 5 ppm,"[1]; Monographella nivalis, rate 5 ppm",0%
CC(C)C1C2CCC1c1c(NC(=O)c3cn(C)nc3C(F)F)cccc12 (stereo not drawn) [Isopyrazam],Activity (%),[3]; 0.015625 ppm,0%
same,Activity (%),[3]; 0.03125 ppm,20%
